One assay deals with hairless mice. In kind it is in vivo, albino hairless mice. On the procedure:
Male albino hairless mice 8 weeks old (strain derived from Skh-HR-1, weight 25 - 35 g) were used, and one group consisted of 12 to 14 mice.
Melatonin (SIGMA Co.) was used as a suspension in 20% ethanol containing physiological saline, and administered by an intraperitoneal injection of 0.1 ml in doses at 3 levels of 0 mg, 1 mg, and 10 mg per day.
A Toshiba FL20-SE was mounted in a cage for irradiation, and irradiation was carried out at an irradiation intensity of 0.94 mW/cm², for 8 minutes per day, three times per week on alternate days for weeks. The irradiation was carried out 57 times, and the total irradiation dose was 25.7 J/cm². The administration of the sample was commenced simultaneously with the UV rays irradiation, and after the completion of the UV rays irradiation, the sample was administered continuously for an additional 10 weeks.
The size of the tumor generated was measured with slide calipers.
A t-examination was practiced for the number of tumors with sizes of 5 mm or more per one individual, and the number of tumors generated with sizes of 5 mm or more is shown in Fig. 2.

Another assay concerns tumors. As to conditions: cited from earlier work.
For assay [1], the system named is Fibroblasts derived from a human being. In words: Effect on cell damage caused by UV-rays irradiation (colony formation). In kind it is cell-based. To be noted: 100 mM melatonin in phosphate buffer, vs system without melatonin, p < 0.01, Fig. 1. The procedure: Fibroblasts derived from a human being were seeded in a laboratory dish having a diameter of 6 cm, at 400 cells/laboratory dish, and were cultured in Eagle's MEM medium containing 10% fetal calf serum in an incubator at 5% CO₂ , at 37°C for 24 hours. After the medium was exchanged with a phosphate buffer containing 100 mM of melatonin (SIGMA Co.), it was irradiated by UVB (Toshiba FL-SE 20W) at 50 mJ/cm² or 100 mJ/cm², followed by a further culturing for 6 days. The culture was fixed with a 10% neutral formalin, stained with a 30-fold Gimza solution, and the colonies per laboratory dish were counted. The colonies of the irradiated group were divided by the colonies of the non-irradiated group, to measure the colony formation ratio. As a Control, a phosphate buffer containing no melatonin was added. In Fig. 1, (a) is the system containing no melatonin and (b) is the system containing 100 mM of melatonin. […] The risk ratio p becomes statistically significant at p < 0.05. Accordingly, it can be seen that melatonin has a protective effect against cell damage caused by UV-rays irradiation.

For `COc1ccc2[nH]cc(CCNC(C)=O)c2c1` [melatonin, N-acetyl-5-methoxytryptamine], in the assay with hairless mice (group administered with 10 mg of melatonin per day, intraperitoneal), the “protective effect against skin cancer” value is reported as “a protective effect against skin cancer was seen”. Further, in the assay on hairless mice (melatonin administered group (1 mg or 10 mg per day, intraperitoneal), UV irradiated, p < 0.05 on 23 days and 26 days and thereafter, Fig. 2), the “generation and proliferation of tumors (number of tumors generated with sizes of 5 mm or more per one mouse)” value was “significantly suppressed”. Also, the proliferation of tumors result with tumors (experimental leukemia, sarcoma, mammary tumors (literature reports)) is listed as “suppressing of a proliferation of tumors”. Further, the course of tumors result in the assay with tumors (mammary tumors (Hamilton, 1969) or lung cancer (Lapin and Ebels, 1976)) is given as “tumors were worsened”. In addition, the colony formation ratio result in assay [1] (UVB 50 mJ/cm²) and in assay [1] (UVB 100 mJ/cm²) was “significantly higher colony formation ratio” each time.
